Source: ChEMBL document CHEMBL4385653, “Design, synthesis, biological evaluation of benzoyl amide derivatives containing nitrogen heterocyclic ring as potential VEGFR-2 inhibitors” (Bioorg Med Chem, 2019)
pIC50: −log10 of the molar value.

Experiments:
[1] = Inhibition of PDGFR (unknown origin) incubated for 30 mins by enzyme immunoassay; parameters: species or system Homo sapiens
[2] = system: HepG2; assay: Antiproliferative activity against human HepG2 cells assessed as inhibition of cell proliferation incubated for 48 hrs by MTT assay; type: functional, cell-based; settings: HepG2, 48 h
[3] = system: HeLa; assay: Antiproliferative activity against human HeLa cells assessed as inhibition of cell proliferation incubated for 48 hrs by MTT assay; type: functional, cell-based
[4] = target: Fibroblast growth factor receptor 1 (Homo sapiens, UniProt P11362); assay: Inhibition of bFGFR (unknown origin) incubated for 30 mins by enzyme immunoassay
Chain of Fibroblast growth factor receptor 1 (P11362 whole entry): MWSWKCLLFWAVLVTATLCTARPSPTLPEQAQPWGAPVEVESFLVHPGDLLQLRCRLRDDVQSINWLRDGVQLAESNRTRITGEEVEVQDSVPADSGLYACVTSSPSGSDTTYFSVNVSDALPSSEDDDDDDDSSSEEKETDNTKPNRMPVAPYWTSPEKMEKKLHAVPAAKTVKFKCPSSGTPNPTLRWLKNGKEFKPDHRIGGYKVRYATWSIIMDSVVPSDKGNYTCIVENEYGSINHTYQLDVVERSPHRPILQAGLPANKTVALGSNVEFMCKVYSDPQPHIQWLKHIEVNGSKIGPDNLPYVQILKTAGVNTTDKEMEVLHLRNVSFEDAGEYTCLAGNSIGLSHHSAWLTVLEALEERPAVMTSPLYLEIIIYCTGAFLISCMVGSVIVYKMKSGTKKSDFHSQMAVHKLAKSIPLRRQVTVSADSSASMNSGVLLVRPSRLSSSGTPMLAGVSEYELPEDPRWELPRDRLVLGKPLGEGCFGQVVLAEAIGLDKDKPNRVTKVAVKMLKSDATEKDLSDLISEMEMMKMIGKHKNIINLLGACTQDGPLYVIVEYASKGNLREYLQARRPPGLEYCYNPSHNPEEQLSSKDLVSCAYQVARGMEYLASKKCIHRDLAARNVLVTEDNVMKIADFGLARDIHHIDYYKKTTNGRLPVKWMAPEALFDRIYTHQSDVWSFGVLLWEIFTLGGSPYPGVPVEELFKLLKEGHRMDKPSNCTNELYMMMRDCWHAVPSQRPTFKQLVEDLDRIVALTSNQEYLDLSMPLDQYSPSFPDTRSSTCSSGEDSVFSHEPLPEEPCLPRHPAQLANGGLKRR

[5] = system: A549; assay: Antiproliferative activity against human A549 cells assessed as inhibition of cell proliferation incubated for 48 hrs by MTT assay; type: functional, cell-based; settings: A549, 48 h
[6] = system: MCF7; assay: Antiproliferative activity against human MCF7 cells assessed as inhibition of cell proliferation incubated for 48 hrs by MTT assay; type: functional, cell-based; settings: MCF7, 48 h
[7] = target: Vascular endothelial growth factor receptor 2 (Homo sapiens, UniProt P35968); assay: Inhibition of VEGFR2 (unknown origin) incubated for 30 mins by enzyme immunoassay
Chain of Vascular endothelial growth factor receptor 2 (P35968 whole entry): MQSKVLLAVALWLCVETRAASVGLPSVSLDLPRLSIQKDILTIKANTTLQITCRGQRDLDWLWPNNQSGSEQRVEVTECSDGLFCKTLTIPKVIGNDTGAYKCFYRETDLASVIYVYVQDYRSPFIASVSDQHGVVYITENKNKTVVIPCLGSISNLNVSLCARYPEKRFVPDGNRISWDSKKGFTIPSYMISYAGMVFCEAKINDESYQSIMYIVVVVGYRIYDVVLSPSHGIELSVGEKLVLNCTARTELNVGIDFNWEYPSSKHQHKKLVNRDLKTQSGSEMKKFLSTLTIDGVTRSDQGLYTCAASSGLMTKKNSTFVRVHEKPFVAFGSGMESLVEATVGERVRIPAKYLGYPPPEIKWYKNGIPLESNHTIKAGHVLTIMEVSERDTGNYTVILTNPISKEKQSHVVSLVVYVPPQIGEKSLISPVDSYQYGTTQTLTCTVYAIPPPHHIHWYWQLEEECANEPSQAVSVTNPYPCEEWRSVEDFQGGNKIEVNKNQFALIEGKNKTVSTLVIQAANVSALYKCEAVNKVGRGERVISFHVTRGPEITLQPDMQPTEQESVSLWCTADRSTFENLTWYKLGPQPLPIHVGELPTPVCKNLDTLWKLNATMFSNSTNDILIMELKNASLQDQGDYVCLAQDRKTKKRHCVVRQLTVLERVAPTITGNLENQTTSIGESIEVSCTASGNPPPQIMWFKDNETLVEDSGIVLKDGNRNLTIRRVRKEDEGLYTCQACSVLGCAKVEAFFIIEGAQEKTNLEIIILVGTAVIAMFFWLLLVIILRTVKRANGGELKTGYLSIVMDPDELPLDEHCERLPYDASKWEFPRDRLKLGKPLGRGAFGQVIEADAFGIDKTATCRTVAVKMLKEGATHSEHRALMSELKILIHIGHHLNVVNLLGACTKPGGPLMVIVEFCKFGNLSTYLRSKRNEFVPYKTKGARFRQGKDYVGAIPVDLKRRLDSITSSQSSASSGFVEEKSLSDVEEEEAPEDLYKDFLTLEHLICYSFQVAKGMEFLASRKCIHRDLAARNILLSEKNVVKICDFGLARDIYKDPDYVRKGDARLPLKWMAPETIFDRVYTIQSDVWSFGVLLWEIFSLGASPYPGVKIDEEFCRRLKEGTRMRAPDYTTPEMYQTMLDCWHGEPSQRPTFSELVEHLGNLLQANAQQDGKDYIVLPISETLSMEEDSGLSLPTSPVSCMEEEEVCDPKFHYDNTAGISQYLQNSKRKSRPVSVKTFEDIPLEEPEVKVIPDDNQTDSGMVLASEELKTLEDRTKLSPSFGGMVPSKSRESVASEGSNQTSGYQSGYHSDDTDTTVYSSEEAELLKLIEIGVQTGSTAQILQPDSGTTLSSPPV

[8] = target: Epidermal growth factor receptor (Homo sapiens, UniProt P00533); assay: Inhibition of EGFR (unknown origin) incubated for 30 mins by enzyme immunoassay
Chain of Epidermal growth factor receptor (P00533 whole entry): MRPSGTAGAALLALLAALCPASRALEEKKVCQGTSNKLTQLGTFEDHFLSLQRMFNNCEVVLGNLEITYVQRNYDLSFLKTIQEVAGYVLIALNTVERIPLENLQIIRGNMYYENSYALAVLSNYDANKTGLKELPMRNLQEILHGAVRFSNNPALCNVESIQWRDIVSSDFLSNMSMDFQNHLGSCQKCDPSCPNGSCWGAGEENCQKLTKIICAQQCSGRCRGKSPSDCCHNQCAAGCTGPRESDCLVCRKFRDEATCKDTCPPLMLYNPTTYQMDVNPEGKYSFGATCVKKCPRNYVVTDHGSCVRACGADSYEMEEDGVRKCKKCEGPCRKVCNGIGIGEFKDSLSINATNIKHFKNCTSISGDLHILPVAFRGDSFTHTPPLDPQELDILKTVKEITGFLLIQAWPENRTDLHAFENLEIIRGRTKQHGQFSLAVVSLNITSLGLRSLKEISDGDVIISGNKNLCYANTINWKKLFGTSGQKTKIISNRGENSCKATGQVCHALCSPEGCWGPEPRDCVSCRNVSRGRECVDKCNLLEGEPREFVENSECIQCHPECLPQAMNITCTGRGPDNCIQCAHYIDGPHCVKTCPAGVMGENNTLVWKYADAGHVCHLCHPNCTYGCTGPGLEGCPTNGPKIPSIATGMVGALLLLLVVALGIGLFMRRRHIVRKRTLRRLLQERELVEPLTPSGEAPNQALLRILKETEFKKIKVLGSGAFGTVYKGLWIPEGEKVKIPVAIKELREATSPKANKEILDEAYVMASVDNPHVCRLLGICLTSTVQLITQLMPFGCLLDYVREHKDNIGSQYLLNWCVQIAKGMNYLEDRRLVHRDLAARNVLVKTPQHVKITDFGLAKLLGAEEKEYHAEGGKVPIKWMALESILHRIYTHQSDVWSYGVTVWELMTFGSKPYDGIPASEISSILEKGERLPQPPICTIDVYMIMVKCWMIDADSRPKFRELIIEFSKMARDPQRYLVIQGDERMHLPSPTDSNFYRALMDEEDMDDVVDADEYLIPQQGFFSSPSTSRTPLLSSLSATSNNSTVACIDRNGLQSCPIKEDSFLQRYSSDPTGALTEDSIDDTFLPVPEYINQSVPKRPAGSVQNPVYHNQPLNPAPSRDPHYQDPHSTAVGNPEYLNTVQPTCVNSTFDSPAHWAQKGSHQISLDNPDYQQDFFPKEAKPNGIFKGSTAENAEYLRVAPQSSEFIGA

[9] = Cytotoxicity in HEK293T cells assessed as reduction in cell viability incubated for 48 hrs by MTT assay; type: cell-based, HEK-293T; settings: human
[10] = system: MCF7; assay: Induction of apoptosis in human MCF7 cells incubated for 24 hrs by Annexin V-FITC/PI double staining based flow cytometry analysis; type: functional, cell-based

| pIC50 [1] | pIC50 [2] | pIC50 [3] | pIC50 [4] | pIC50 [5] | pIC50 [6] | pIC50 [7] | pIC50 [8] | SMILES | CC50 at 48 h [9] | Activity [10] |
| --- | --- | --- | --- | --- | --- | --- | --- | --- | --- | --- |
| 4.43 | 4.24 | 4.33 | 4.34 | 4.07 | 4.59 | 4.84 | 4.58 | COc1ccc(-n2cc(NC(=O)c3ccc(NS(=O)(=O)c4ccccc4)cc3)cn2)cc1 | – | – |
| 4.71 | 4.82 | 4.73 | 4.67 | 4.47 | 5.28 | 5.43 | – | O=C(Nc1cnn(-c2ccccc2)c1)c1ccc(NS(=O)(=O)c2ccc(Cl)cc2)cc1 | 125 µM | – |
| 4.66 | 4.82 | 4.70 | 4.59 | 4.53 | 5.06 | 5.29 | 4.81 | COc1ccc(-n2cc(NC(=O)c3cccc(NS(=O)(=O)c4ccc(Cl)cc4)c3)cn2)cc1 | 89.8 µM | – |
| 4.58 | 4.72 | 4.60 | 4.58 | 4.21 | 4.81 | 5.15 | 4.79 | COc1ccc(-n2cc(NC(=O)c3ccc(NS(=O)(=O)c4ccc(Cl)cc4)cc3)cn2)cc1 | – | – |
| 4.46 | 4.67 | 4.43 | 4.45 | 4.06 | 4.77 | 4.99 | 4.59 | O=C(Nc1cnn(-c2ccccc2)c1)c1ccc(NS(=O)(=O)c2ccccc2)cc1 | – | – |
| 4.80 | 5.01 | 5.10 | 4.79 | 4.66 | 5.40 | 5.54 | 4.90 | Cc1ccc(-n2cc(NC(=O)c3ccc(NS(=O)(=O)c4ccc(Cl)cc4)cc3)cn2)cc1 | 138 µM | – |
| 5.88 | 5.61 | 5.18 | – | 4.74 | 5.85 | – | – | COc1cc2/c(=N/c3ccc(Br)cc3F)nc[nH]c2cc1OCC1CCN(C)CC1 [VANDETANIB] | – | Dose-dependent effect |
| 4.75 | 5.07 | 5.27 | 4.73 | 4.71 | 5.50 | 5.62 | 4.98 | O=C(Nc1cnn(-c2ccccc2)c1)c1cccc(NS(=O)(=O)c2ccc(Cl)cc2)c1 | 120 µM | – |
| 4.40 | 4.19 | 4.18 | 4.32 | < 4.00 | 4.55 | 4.79 | 4.62 | COc1cccc(-n2cc(NC(=O)c3ccc(NS(=O)(=O)c4ccccc4)cc3)cn2)c1 | – | – |
| – | – | – | – | – | – | – | – | COc1cc2c(Nc3ccc(Br)cc3F)ncnc2cc1OCC1CCN(C)CC1 [VANDETANIB] | 172 µM | – |
